Measurements reported in US9056832B2, “Pyridine compounds and the users thereof” (Purdue Pharma L.P., priority 2010, dated 2015).
Read-outs that look alike come from different tables or passages of the source.

How the values were obtained:
[1] = test system: neuropathic hyperalgesia in rats; assay: Seltzer model (partial sciatic nerve ligation) of neuropathic pain, paw withdrawal threshold; assay type: in vivo; conditions: 30 mg/kg p.o., rat; for Time post-dose (h) with statistically significant increase in paw withdrawal threshold: Seltzer model, assessed 1, 3 and 5 h after administration
Procedure: Test Animals: Each experiment uses rats weighing between 200-260 g at the start of the experiment. The rats are group-housed and have free access to food and water at all times, except prior to oral administration of a test compound when food is removed for 16 hours before dosing. A control group acts as a comparison to rats treated with a compound of Formulae I-XXXIII. The control group is administered the carrier as used for the test compound. The volume of carrier administered to the control group is the same as the volume of carrier and test compound administered to the test group.
In the Seltzer model, the partial sciatic nerve ligation model of neuropathic pain was used to produce neuropathic hyperalgesia in rats (Seltzer et al., Pain 43:205-218 (1990)). Partial ligation of the left sciatic nerve was performed under inhalation anesthesia, e.g., isoflurane/O2. Following induction of anesthesia, the left thigh of the rat was shaved and the sciatic nerve exposed at high thigh level through a small incision and was carefully cleared of surrounding connective tissues at a site near the trocanther just distal to the point at which the posterior biceps semitendinosus nerve branches off of the common sciatic nerve. A 7-0 silk suture was inserted into the nerve, e.g., with a ⅜ curved, reversed-cutting mini-needle, and tightly ligated so that the dorsal ⅓ to ½ of the nerve thickness was held within the ligature. The wound was closed, e.g., with a single muscle suture (4-0 nylon (Vicryl)) and vetbond tissue glue. Following surgery, the wound area was dusted with antibiotic powder. Sham-treated rats undergo an identical surgical procedure except that the sciatic nerve is not manipulated. Following surgery, animals were weighed and placed on a warm pad until they recovered from anesthesia. Animals were then returned to their home cages until behavioral testing began. The animals were assessed for response to noxious mechanical stimuli by determining PWT, as described below, prior to surgery (baseline), then immediately prior to and 1, 3, and 5 hours after drug administration for rear paw of the animal. Percentage reversal of neuropathic hyperalgesia is defined as: […]
The following compounds were tested and produced a statistically significant increase in paw withdrawal threshold when administered at 30 mg/kg p.o. in the Seltzer model of neuropathic pain at the time points indicated:
Mechanical Hyperalgesia: Sensitivity to noxious mechanical stimuli can be measured in animals using the paw pressure test to assess mechanical hyperalgesia. In rats, hind paw withdrawal thresholds (“PWT”), measured in grams, in response to a noxious mechanical stimulus are determined using an analgesymeter (Model 7200, commercially available from Ugo Basile of Italy), as described in Stein (Biochemistry & Behavior 31: 451-455 (1988)). The rat's paw is placed on a small platform, and weight is applied in a graded manner up to a maximum of 250 grams. The endpoint is taken as the weight at which the paw is completely withdrawn. PWT is determined once for each rat at each time point. PWT can be measured only in the injured paw, or in both the injured and non-injured paw. In one non-limiting embodiment, mechanical hyperalgesia associated with nerve injury induced pain (neuropathic pain) can be assessed in rats. Rats are tested prior to surgery to determine a baseline, or normal, PWT. Rats are tested again 2 to 3 weeks post-surgery, prior to, and at different times after (e.g. 1, 3, 5 and 24 hr) drug administration.

human Nav1.7 = human Nav1.7 (Homo sapiens (Human), UniProt Q15858); assay: FLIPR or FLIPR TETRA sodium dye assay with KCl and test article pre-incubation; assay type: cell-based; conditions: read-out: Nav1.7 IC50 (μM) ± SEM
Sequence of human Nav1.7 (Q15858 other isoform, or with tags, fused parts or gaps): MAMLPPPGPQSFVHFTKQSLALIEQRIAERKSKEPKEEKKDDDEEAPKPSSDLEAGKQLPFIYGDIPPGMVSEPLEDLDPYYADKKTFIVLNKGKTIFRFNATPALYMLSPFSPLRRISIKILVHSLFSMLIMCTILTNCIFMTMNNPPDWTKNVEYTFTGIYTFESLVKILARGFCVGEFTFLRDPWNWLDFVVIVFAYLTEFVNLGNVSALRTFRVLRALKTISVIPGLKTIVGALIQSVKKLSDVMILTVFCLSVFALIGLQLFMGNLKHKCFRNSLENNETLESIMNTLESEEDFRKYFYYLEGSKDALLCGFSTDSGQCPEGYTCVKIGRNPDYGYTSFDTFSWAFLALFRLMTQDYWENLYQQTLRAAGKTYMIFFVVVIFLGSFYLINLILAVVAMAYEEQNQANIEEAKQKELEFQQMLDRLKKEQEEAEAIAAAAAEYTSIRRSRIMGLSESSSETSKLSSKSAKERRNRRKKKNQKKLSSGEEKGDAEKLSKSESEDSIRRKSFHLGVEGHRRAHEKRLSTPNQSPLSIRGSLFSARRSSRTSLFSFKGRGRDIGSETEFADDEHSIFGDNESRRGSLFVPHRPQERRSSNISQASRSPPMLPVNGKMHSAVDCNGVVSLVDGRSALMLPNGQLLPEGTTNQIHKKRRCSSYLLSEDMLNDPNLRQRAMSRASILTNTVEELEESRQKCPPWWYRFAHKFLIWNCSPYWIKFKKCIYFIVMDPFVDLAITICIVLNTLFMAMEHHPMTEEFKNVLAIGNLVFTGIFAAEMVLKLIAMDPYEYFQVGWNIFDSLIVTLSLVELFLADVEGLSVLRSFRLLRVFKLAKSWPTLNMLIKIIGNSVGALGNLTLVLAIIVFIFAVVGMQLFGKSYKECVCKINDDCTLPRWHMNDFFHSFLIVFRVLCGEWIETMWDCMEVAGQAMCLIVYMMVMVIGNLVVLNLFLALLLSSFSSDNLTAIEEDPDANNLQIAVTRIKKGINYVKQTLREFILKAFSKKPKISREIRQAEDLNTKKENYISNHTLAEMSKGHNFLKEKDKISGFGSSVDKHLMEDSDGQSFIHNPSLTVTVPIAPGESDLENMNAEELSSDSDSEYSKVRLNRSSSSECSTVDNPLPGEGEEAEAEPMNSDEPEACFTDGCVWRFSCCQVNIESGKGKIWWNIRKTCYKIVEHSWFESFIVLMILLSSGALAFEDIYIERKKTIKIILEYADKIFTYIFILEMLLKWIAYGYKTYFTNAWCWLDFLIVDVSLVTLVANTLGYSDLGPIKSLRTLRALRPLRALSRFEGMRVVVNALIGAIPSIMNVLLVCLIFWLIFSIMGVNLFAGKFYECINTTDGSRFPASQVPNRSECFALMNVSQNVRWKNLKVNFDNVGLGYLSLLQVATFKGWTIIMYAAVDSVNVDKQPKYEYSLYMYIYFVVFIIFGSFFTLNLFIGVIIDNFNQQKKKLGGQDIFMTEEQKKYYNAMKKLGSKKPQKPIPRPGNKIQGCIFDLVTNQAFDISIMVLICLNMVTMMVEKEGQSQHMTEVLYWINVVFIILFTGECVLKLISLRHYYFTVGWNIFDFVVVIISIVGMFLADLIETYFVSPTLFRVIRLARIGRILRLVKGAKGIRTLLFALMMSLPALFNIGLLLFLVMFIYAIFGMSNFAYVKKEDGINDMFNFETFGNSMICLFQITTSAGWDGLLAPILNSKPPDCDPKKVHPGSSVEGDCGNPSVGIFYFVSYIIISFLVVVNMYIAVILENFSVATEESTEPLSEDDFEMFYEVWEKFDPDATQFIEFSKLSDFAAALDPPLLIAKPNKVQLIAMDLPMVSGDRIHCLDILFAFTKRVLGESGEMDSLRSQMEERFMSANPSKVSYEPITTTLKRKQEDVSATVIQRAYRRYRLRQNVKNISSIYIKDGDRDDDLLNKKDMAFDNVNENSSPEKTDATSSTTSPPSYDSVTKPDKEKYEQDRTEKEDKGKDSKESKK

[2] = recombinant human Nav1.7 in HEK293 cells, CoroNa Green sodium dye, veratridine + scorpion venom

Structure (SMILES) | Time post-dose (h) with statistically significant increase in paw withdrawal threshold [1] [h] | IC50 (human Nav1.7) [µM] | IC50 (human Nav1.7; [2]) [µM] | increase in paw withdrawal threshold in the Seltzer model ([1]; vehicle 10% Tween 80 in water)
OC[C@H](O)c1cccc(-c2ccc(Oc3ccc(C(F)(F)F)cc3)cc2)n1 [compound 5, (R)-1-(6-(4-(4-(trifluoromethyl)phenoxy)phenyl)pyridin-2-yl)ethane-1,2-diol] | 1 | 0.16 ± 0.07 | – | –
N#Cc1cc(Oc2ccc(-c3cccc([C@H](O)CO)n3)cc2)ccc1C(F)(F)F [compound 18, (S)-5-(4-(6-(1,2-dihydroxyethyl)pyridin-2-yl)phenoxy)-2-(trifluoromethyl) benzonitrile] | 1 | 2.8 ± 0.12 | – | –
NC(=O)c1cc([C@H](O)CO)cc(-c2ccc(Oc3ccc(C(F)(F)F)cc3)cc2)n1 [compound 30, (S)-4-(1,2-dihydroxyethyl)-6-(4-(4-(trifluoromethyl)phenoxy)phenyl) picolinamide] | 1 | – | 0.24 ± 0.07 | –
NC(=O)c1cc([C@@H](O)CO)cc(-c2ccc(Oc3ccc(F)cc3)cc2)n1 [compound 40, (R)-4-(1,2-dihydroxyethyl)-6-(4-(4-fluorophenoxy)phenyl)picolinamide] | 1 | – | – | –
N#Cc1cc(C(F)(F)F)ccc1Oc1ccc(-c2cccc(CNCCN3CCNC3=O)n2)cc1 [compound 63, 2-(4-(6-(((2-(2-oxoimidazolidin-1-yl)ethyl)amino)methyl)pyridin-2-yl)phenoxy)-5-(trifluoromethyl) benzonitrile] | – | – | 0.09 ± 0.03 | did not produce a statistically significant increase
O=C1NCCN1CCNCc1cccc(-c2ccc(Oc3ccc(C(F)(F)F)cn3)cc2)n1 [compound 68, 1-(2-(((6-(4-((5-(trifluoromethyl)pyridin-2-yl)oxy)phenyl)pyridin-2-yl)methyl)amino)ethyl) imidazolidin-2-one] | 1 | – | 0.18 ± 0.09 | –
